Laboratory results taken from patent US20060287251A1, “Combination therapy for glycaemic control” (priority 2003, published 2006).

What was measured:
plasma DPIV activity = target: T1, plasma DPIV activity (Rattus norvegicus, UniProt P14740); assay: Plasma DPIV inhibiting activity after intravasal and oral administration to Wistar rats; type: in vivo; conditions: 100 mg/kg b.w. vs. placebo, oral and intra-vasal administration
T1 construct: from tissue; host or cells: plasma of male Wistar rats
Procedure: Male Wistar rats (Shoe: Wist(Sho)) with a body weight ranging between 250 and 350 g were purchased from Tierzucht Schönwalde (Schönwalde, Germany). Animals were single-caged under conventional conditions with controlled temperature (22±2° C.) on a 12/12 hours light/dark cycle (light on at 06:00 AM). Standard pelleted chow (ssniff® Soest, Germany) and tap water acidified with HCl were allowed ad libitum. After ≧one week of adaptation at the housing conditions, catheters were implanted into the carotid artery of Wistar rats under general anaesthesia (i.p. injection of 0.25 ml/kg b.w. Rompun®[2%], BayerVital, Germany and 0.5 ml/kg b.w. Ketamin 10, Atarost GmbH & Co., Twistringen, Germany). The animals were allowed to recover for one week. The catheters were flushed with heparin-saline (100 IU/ml) three times per week. In case of catheter dysfunction, a second catheter was inserted into the contra-lateral carotid artery of the respective rat. After one week of recovery from surgery, this animal was reintegrated into the study. In case of dysfunction of the second catheter, the animal was withdrawn from the study. […]
Statistical evaluations and graphics were performed with PRISM® 3.02 (GraphPad Software, Inc.). All parameters were analysed in a descriptive manner including mean and SD.

[1] = system: diet-induced obese (DIO) rats; assay: Glycaemic control (OGTT) in diet-induced obese rats with impaired glucose tolerance; type: in vivo, rat; conditions: glutaminyl thiazolidine hydrochloride 60 mg/kg BID, Metformin 125 mg/kg BID
Procedure: Selectively bred male rats, 5-6 weeks of age, displaying enhanced likelihood of developing diet-induced obesity (DIO) are selected from the breeding colony. A total of 40 DIO animals are included in the study.
Upon entry to the experiment, rats are housed individually (1 rat/cage) in a 12/12 light-dark cyldle (light from 0600-1800 h) with controlled temperature conditions (22-24° C.). […] After one week of acclimatisation, 24 h food and water intake and body-weight is measured gravimetrically twice weekly (in the morning between 8-10 am). After 3 weeks of HF feeding, average daily food consumption is calculated for all rats. The average food intake comprises a platform from which a scheduled feeding regime is implemented. […]
This test is carried out at 8:00 AM on days 6 and 42. […] Blood samples are taken from an indwelling arterial catheter and P-glucose is measured on automated analyser (Roche Diagnostics) at time points −60, −30, 0, 15, 30, 60, 120, and 180 min after oral administration of 1 g/kg glucose (using 1 g/ml dH2O). […] P-insulin is measured at time points: 0, 15, 30, 60, 120 using an ultra-sensitive ELISA (Shibayagi,Japan).
All rats are equipped with intra-arterial catheters at day −7. […] All blood samples are taken in EDTA Vacutainer tubes and plasma glucose is measured together with total Cholesterol and triacylglycerol. […]

Zucker (fa/fa) rats = assay: Combination therapy of glutaminyl thiazolidine with other oral antidiabetics in Zucker (fa/fa) rats; type: in vivo, rat; conditions: after 14 days subchronic medication; versus Control; GT 60 mg/kg b.w. b.i.d. oral
Procedure: Standard pelleted chow (ssniff®, Soest, Germany) and tap water acidified with HCl were allowed ad libitum. At the age of 12 weeks the animals (N=42) were divided in random order into six experimental groups to be medicated.
During the two weeks of medication morning blood glucose was measured before the 08:00 AM medication at Monday, Wednesday and Friday.
A second OGTT was performed after two weeks of medication (Day 15).

T1 sequence (P14740 38-767 limits assumed): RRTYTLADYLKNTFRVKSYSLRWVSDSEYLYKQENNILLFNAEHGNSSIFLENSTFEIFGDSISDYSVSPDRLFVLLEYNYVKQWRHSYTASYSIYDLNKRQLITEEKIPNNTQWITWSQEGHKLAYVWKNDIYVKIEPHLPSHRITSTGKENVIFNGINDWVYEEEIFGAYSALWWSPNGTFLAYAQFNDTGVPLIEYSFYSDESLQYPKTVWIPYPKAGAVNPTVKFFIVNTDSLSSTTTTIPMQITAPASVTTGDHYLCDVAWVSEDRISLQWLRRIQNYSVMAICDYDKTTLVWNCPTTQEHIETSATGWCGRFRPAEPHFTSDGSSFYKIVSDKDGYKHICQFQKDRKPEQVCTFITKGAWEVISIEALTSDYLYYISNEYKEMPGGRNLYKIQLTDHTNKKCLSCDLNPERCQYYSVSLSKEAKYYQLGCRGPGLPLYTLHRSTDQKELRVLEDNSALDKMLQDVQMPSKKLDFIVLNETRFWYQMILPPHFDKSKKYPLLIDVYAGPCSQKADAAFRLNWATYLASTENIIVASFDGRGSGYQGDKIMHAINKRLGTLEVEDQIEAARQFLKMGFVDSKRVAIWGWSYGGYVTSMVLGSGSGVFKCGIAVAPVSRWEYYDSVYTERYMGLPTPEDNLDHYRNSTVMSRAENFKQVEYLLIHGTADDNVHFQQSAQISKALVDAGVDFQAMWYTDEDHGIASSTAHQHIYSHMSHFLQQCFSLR

Row | Compound | plasma DPIV activity (plasma DPIV activity) | oral glucose tolerance [1] | glucose tolerance, OGTT-2 (Zucker (fa/fa) rats)
1 | NC(=O)CC[C@H](N)C(=O)N1CCSC1 [glutaminyl thiazolidine] | inhibited plasma DPIV activity | improved oral glucose tolerance | improved glucose tolerance
2 | NC(=O)CC[C@H](N)C(=O)N1CCCC1 [glutaminyl pyrrolidine] | inhibited plasma DPIV activity |  | 
